# Data: US6716829B2, “Aldosterone antagonist and cyclooxygenase-2 inhibitor combination therapy to prevent or treat inflammation-related cardiovascular disorders” (Pharmacia Corporation, priority 2000, dated 2004)
# Where “and” joins values, the source holds several entries; their conditions need not be identical. Equal values may be shown once.
# Experiments:
# Type in all cases: in vivo, Male Sprague-Dawley rats
# hydroxyproline = test: Assay C: myocardial hydroxyproline assay
# Experimental: The procedure of Assay B was expanded upon in a further study. […] Myocardial tissue from animals in each treatment group was examined after 7, 14, or 30 days of treatment. […] Lesions were preceded by the expression and progressive upregulation of proinflammatory molecules. […] Prior to surgery the animals were individually weighed and placed in one of the following groups: […] Potassium chloride supplementation was added to the saline solution in order to prevent the potential hypokalemia associated with aldosterone excess. […] Louis, Mo.) was inserted subcutaneously at the nape of the neck. Aldosterone was administered at a dose of 0.75 µg/hour. […] Animals were sacrificed from each group (n=8-13) after 7, 14, or 30 days of treatment. Following exsanguination, hearts and kidneys were isolated, removed, rinsed in cold phosphate-buffered saline, and blotted dry. […] Myocardial hydroxyproline concentration was measured by a […] assay that quantifies the reaction between oxidized hydroxyproline, and p-dimethylaminobenzaldehyde as described previously (4). […] Dried tissues and a positive collagen control (Bovine Collagen Type I, Sigma, St. […] T. Baker, Phillipsburg, N.J.) for 5 min at 25° C. […] Samples were incubated at 60° C. for 30 min, cooled to room temperature, and absorbance was monitored at 558 nm. Hydroxyproline content was quantitated from a freshly prepared standard curve of trans-4-hydroxy-L-proline (Sigma, St. Louis, Mo.). All samples and standards were performed in duplicate.
# Collagen I = test: Assay C: Collagen I mRNA by TaqMan RT-PCR; conditions: for Collagen type-I message: at 30 days, compared to vehicle + salt controls; for Collagen-I (AU): collagen type I mRNA relative to cyclophilin, eplerenone dose 100 mg/kg/day
# Experimental: (§1) The procedure of Assay B was expanded upon in a further study. […] Myocardial tissue from animals in each treatment group was examined after 7, 14, or 30 days of treatment.
# (§2) Potassium chloride supplementation was added to the saline solution in order to prevent the potential hypokalemia associated with aldosterone excess.
# (§3) At the time of the surgery, an Alzet 2002 osmotic minipump (Alza Corp., Palo Alto, Calif.) containing either vehicle (9% ethanol/87% propylene glycol/4% dH2O) or 1.0 mg/mL d-aldosterone (Sigma Chemical, St. Louis, Mo.) was inserted subcutaneously at the nape of the neck. Aldosterone was administered at a dose of 0.75 µg/hour. […] Animals were sacrificed from each group (n=8-13) after 7, 14, or 30 days of treatment.
# (§4) The fluorogenic 5′-nuclease assay (TaqMan PCR) using Applied Biosystems' 7700 Sequence Detection System (Applied Biosystems, Foster City, Calif.) allowed for real time detection/quantitation of a specific gene by monitoring the increase in fluorescence of a gene-specific, dye-labeled oligonucleotide probe. Probes for target and reference genes were labeled at the 5′-end with a 6-carboxyfluorescein (6FAM) reporter dye and at the 3′-end with a 6-carboxy-N,N,N′,N′-tetramethylrhodamine (TAMRA) quencher dye. When the probe was annealed to the target gene, fluorescence of 6FAM was prevented by the close proximity of TAMRA. The exonuclease activity of Taq polymerase released the dyes from the oligonucleotide probe by displacing the probe from the target sequence resulting in fluorescence excitation in direct proportion to the amount of target message present. Data analysis was performed using the Sequence Detection System software from Applied Biosystems.
# (§5) Primers and probes were designed using Oligo Primer Analysis Software, Version 5.0 (National Biosciences Inc. (NBI)-Wojciech Rychlik, Cascade, Colo.). Primers were synthesized by Life Technologies (Grand Island, N.Y.) and probes were synthesized by Applied Biosystems. Primer/probe sets were designed from known sequences of rat genes to be analyzed. All target gene values were normalized to a reference gene, constitutively expressed cyclophilin. Primer/probe sets sequences can be found in Table 8
# (§6) RNA was extracted from frozen (−70° C.) left ventricle (LV) tissue (approximately 10-20 mg) using 1.5 mL RNA-STAT 60 according to manufacturer's instructions (Leedo Medical Laboratories, Inc., Houston, Tex.). Briefly, tissues were homogenized using a tissue homogenizer equipped with a 5 mm probe (Ultra-Turrax T8 Homogenizer, IKA Works, Inc. Wilmington, N.C.). Following homogenization, an equal volume of molecular grade chloroform (Sigma Chemical Co., St. Louis, Mo.) was incubated with periodic mixing for 10 min at room temperature. Samples were centrifuged at 12,000 g for 10 min and RNA was precipitated from the top layer by adding an equal volume of molecular grade isopropanol (Sigma Chemical Co.) followed by an overnight incubation at −80° C. RNA was pelleted by centrifugation at 12,000 g, washed with 75% ethanol, and solubilized in nuclease-free water (Promega, Madison, Wis.).
# (§7) Double-stranded cDNA was synthesized by adding 400 ng RNA (4 uL) to a final volume of 20 uL containing 15% nuclease-free water (Promega, Madison, Wis.), 1×RT Buffer (Life Technologies, Grand Island, N.Y.), 10 mM DTT (Life Technologies), 0.5 mM each of dATP, dTTP, dGTP, dCTP (PE Biosystems, Foster City, Calif.), 2.5 μM Oligo d(T)15 (Oligo Therapeutics, Inc., Wilsonville, Oreg.), 40 units RNAsin (Promega), and 200 units SuperScript II Reverse Transcriptase (Life Technologies). The reactions were performed in thin-walled reaction tubes with caps (Applied Biosystems) to ensure accurate reaction temperatures.
# [1] = system: Transforming growth factor beta 1 (TGFβ1); test: Assay C: TGFβ1 mRNA by TaqMan RT-PCR; conditions: for TGF-β1 mRNA (AU): relative to cyclophilin expression, mean ± SEM, eplerenone dose 100 mg/kg/day; for TGF-β (AU): mRNA, individual rats, incl. rat marked * excluded from statistics
# Experimental: as §1, §2, §3, §4, §5, §6, §7
# [2] = group mean, data used for Table 15 (14 days of treatment)
# [3] = group mean, data used for Table 16 (30 days of treatment)
# [4] = individual rats, data used for Table 15 (14 days of treatment), incl. rat marked * excluded from statistics, listed as Aldosterone + salt
# [5] = individual rats, data used for Table 16 (30 days of treatment), incl. rat marked * excluded from statistics, listed as Aldosterone + salt
# [6] = mean after 7 days of treatment, eplerenone dose 100 mg/kg/day
# [7] = mean after 14 days of treatment, eplerenone dose 100 mg/kg/day
# [8] = mean after 30 days of treatment, eplerenone dose 100 mg/kg/day
# [9] = mean ± SEM after 7 days of treatment
# [10] = mean ± SEM after 14 days of treatment
# [11] = mean ± SEM after 30 days of treatment
# [12] = individual rats, data used for Table 15 (14 days of treatment), incl. rat marked * excluded from statistics, listed as Eplerenone + aldosterone + salt
# [13] = individual rats, data used for Table 16 (30 days of treatment), incl. rat marked * excluded from statistics, listed as Eplerenone + aldosterone + salt
Structure (SMILES),Hydroxyproline (hydroxyproline; [2]) [µg/mg],Hydroxyproline (hydroxyproline; [3]) [µg/mg],Hydroxyproline (hydroxyproline; [6]) [µg/mg],Hydroxyproline (hydroxyproline; [7]) [µg/mg],Hydroxyproline (hydroxyproline; [8]) [µg/mg],Collagen type-I message (Collagen I),Collagen-I (AU) (Collagen I; [9]),Collagen-I (AU) (Collagen I; [10]),Collagen-I (AU) (Collagen I; [11]),Collagen-I mRNA (AU) (Collagen I; [2]),Collagen-I mRNA (AU) (Collagen I; [3]),TGF-β1 mRNA (AU) ([1]; after 7 days of treatment),TGF-β1 mRNA (AU) ([1]; after 14 days of treatment),TGF-β1 mRNA (AU) ([1]; after 30 days of treatment),other results
C[C@]12CCC(=O)C=C1CC[C@@H]1[C@@H]2[C@@H](O)C[C@]2(C=O)[C@@H](C(=O)CO)CC[C@@H]12 [Aldosterone],4.04,4.39,2.73,4.04,4.39,modest increase,1.36 ± 0.14,1.33 ± 0.24,2.29 ± 0.47,1.33,2.29,1.35,1.27,1.33,"Hydroxyproline (hydroxyproline; [4]): 2.89 µg/mg and 2.91 µg/mg and 6.28 µg/mg and 5.63 µg/mg and 4.83 µg/mg and 5.64 µg/mg and 5.29 µg/mg and 2.76 µg/mg and 2.68 µg/mg and 2.60 µg/mg and 3.00 µg/mg and 3.99 µg/mg and 2.73 µg/mg; Hydroxyproline (hydroxyproline; [5]): 7.24 µg/mg and 8.01 µg/mg and 3.62 µg/mg and 3.69 µg/mg and 4.00 µg/mg and 3.54 µg/mg and 3.07 µg/mg and 3.25 µg/mg and 3.09 µg/mg; Collagen-I mRNA (AU) (Collagen I; [4]): 1.15 AU and 2.31 AU and 0.25 AU and 1.89 AU and 2.03 AU and 1.00 AU and 1.20 AU and 1.70 AU and 0.43 AU and 2.69 AU; Collagen-I mRNA (AU) (Collagen I; [5]): 2.20 AU and 2.02 AU (2×) and 5.88 AU and 1.05 AU and 1.32 AU and 1.98 AU and 1.63 AU and 2.54 AU; TGF-β (AU) ([1]; data used for Table 17 (7-day protocol), listed as Aldosterone + salt): 1.23 AU and 0.98 AU and 1.31 AU and 1.89 AU and 1.22 AU and 1.45 AU and 1.47 AU and 1.21 AU and 1.35 AU; TGF-β (AU) ([1]; data used for Table 18 (14-day protocol), listed as Aldosterone + salt): 1.26 AU and 1.85 AU and 0.55 AU and 1.91 AU and 1.49 AU and 1.18 AU and 1.32 AU and 1.27 AU and 0.56 AU and 1.29 AU; TGF-β (AU) ([1]; data used for Table 19 (30-day protocol), listed as Aldosterone + salt): 1.41 AU and 1.27 AU and 2.11 AU and 1.20 AU and 1.95 AU and 1.49 AU and 0.83 AU and 0.54 AU and 1.21 AU"
COC(=O)[C@@H]1CC2=CC(=O)CC[C@]2(C)[C@@]23O[C@@H]2C[C@@]2(C)[C@@H](CC[C@@]24CCC(=O)O4)[C@H]13 [Eplerenone],4.46,4.10,3.06,4.46,4.10,modest increase,0.85 ± 0.15,1.39 ± 0.21,2.53 ± 0.20,1.39,2.53,0.99,1.26,1.32,"Hydroxyproline (hydroxyproline; [12]): 2.95 µg/mg and 5.97 µg/mg and 6.52 µg/mg and 5.35 µg/mg and 6.80 µg/mg and 5.32 µg/mg and 2.72 µg/mg and 3.13 µg/mg and 2.41 µg/mg and 2.81 µg/mg and 5.03 µg/mg; Hydroxyproline (hydroxyproline; [13]): 5.18 µg/mg and 6.11 µg/mg and 5.17 µg/mg and 6.40 µg/mg and 2.73 µg/mg and 2.84 µg/mg and 2.97 µg/mg and 2.82 µg/mg and 2.72 µg/mg and 5.75 µg/mg; Collagen-I mRNA (AU) (Collagen I; [12]): 0.86 AU (2×) and 0.90 AU and 1.65 AU and 1.14 AU and 1.44 AU and 0.50 AU and 1.24 AU and 1.69 AU and 2.03 AU and 3.02 AU; Collagen-I mRNA (AU) (Collagen I; [13]): 1.89 AU and 1.54 AU and 2.65 AU (2×) and 1.97 AU and 2.98 AU and 2.90 AU and 2.88 AU and 3.35 AU and 2.01 AU; TGF-β (AU) ([1]; data used for Table 17 (7-day protocol), listed as Eplerenone + aldosterone + salt): 0.80 AU (2×) and 0.81 AU and 0.51 AU and 1.31 AU and 1.02 AU and 0.61 AU and 0.84 AU and 1.51 AU and 1.64 AU; TGF-β (AU) ([1]; data used for Table 18 (14-day protocol), listed as Eplerenone + aldosterone + salt): 0.58 AU and 0.62 AU and 1.04 AU and 1.42 AU and 1.29 AU and 1.49 AU and 0.71 AU and 1.21 AU and 1.44 AU and 1.69 AU and 2.41 AU; TGF-β (AU) ([1]; data used for Table 19 (30-day protocol), listed as Eplerenone + aldosterone + salt): 1.00 AU and 1.49 AU and 1.40 AU and 1.31 AU and 0.96 AU and 1.93 AU and 1.54 AU and 1.32 AU and 0.89 AU and 1.35 AU"
